# Test results as given in publication PMC11302589 (Organic & biomolecular chemistry, 2012).
# How the values were obtained:
# [1] = molecular target: Vibrio cholerae sialidase (type III) (Vibrio cholerae serotype O1, UniProt P0C6E9); assay: biochemical; format: biochemical; conditions: for IC50: V. cholerae
# [2] = molecular target: Salmonella typhimurium sialidase (Salmonella typhimurium, UniProt P29768); assay: biochemical
# [3] = molecular target: Streptococcus pneumoniae sialidase NanB (Streptococcus pneumoniae serotype 4, UniProt Q54727); assay: biochemical
# Chain of Streptococcus pneumoniae sialidase NanB (Q54727 30-697): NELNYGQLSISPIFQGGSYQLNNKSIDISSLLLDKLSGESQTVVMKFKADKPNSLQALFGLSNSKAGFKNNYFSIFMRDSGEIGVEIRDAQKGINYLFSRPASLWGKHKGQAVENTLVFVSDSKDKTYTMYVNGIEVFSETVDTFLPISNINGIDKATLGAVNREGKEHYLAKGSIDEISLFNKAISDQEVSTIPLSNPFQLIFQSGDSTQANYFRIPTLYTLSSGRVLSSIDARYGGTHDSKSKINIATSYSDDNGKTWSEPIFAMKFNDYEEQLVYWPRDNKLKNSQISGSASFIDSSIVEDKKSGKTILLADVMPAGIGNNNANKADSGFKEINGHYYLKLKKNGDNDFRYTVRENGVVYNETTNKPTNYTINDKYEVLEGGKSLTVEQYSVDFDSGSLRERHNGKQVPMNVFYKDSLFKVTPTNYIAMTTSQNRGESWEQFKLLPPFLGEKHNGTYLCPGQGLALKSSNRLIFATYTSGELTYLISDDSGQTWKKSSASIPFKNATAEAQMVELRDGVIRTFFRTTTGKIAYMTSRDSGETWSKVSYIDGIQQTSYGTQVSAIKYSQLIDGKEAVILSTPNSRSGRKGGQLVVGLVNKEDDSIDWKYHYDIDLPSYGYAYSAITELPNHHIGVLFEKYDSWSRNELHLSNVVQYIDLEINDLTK
# [4] = molecular target: T1, β-galactosidase (Aspergillus oryzae, UniProt Q2UCU3); format: biochemical
# T1 sequence (Q2UCU3 19-1005): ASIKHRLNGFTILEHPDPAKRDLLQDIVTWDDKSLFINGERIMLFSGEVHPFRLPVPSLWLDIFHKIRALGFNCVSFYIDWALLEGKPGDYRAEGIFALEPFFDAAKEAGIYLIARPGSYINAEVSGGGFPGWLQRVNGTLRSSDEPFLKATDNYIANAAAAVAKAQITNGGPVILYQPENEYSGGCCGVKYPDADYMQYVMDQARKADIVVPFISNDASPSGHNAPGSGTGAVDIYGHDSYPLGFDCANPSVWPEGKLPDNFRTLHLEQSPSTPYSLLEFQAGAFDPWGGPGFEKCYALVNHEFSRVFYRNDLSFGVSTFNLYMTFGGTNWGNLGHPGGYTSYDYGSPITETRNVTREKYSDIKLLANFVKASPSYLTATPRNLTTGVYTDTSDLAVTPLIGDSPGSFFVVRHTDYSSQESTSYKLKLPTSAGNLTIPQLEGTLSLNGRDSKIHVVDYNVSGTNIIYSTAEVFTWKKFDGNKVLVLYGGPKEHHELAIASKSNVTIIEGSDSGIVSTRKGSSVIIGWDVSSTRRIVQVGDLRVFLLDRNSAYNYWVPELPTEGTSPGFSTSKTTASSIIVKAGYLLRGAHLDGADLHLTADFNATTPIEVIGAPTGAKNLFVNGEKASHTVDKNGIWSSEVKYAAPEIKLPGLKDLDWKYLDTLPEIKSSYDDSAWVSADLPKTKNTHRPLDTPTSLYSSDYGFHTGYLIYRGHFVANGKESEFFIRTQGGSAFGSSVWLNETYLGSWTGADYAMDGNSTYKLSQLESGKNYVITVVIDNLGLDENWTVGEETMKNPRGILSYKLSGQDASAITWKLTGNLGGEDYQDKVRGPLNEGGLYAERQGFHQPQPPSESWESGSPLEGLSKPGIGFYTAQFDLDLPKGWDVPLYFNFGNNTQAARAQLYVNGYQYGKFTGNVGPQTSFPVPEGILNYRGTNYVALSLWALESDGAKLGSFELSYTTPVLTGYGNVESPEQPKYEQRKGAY
# [5] = molecular target: human cytosolic sialidase NEU2 (Homo sapiens, UniProt Q9Y3R4); assay: biochemical; format: biochemical; conditions: for IC50: IC50 with Neu5Acα2–3GalβpNP as sialidase substrate, NEU2
# Chain of human cytosolic sialidase NEU2 (Q9Y3R4 whole entry): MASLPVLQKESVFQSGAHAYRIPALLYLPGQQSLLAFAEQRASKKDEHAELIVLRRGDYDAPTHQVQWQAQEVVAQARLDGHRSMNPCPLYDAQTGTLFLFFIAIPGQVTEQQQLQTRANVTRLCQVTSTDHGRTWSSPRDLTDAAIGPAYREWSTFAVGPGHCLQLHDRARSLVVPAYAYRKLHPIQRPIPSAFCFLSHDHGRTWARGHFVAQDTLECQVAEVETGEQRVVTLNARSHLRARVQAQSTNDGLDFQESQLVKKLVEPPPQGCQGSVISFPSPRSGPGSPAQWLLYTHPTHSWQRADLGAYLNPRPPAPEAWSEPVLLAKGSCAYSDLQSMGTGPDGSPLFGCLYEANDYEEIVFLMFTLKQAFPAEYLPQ
# [6] = IC50 with Neu5Acα2–3GalβpNP as sialidase substrate
# [7] = IC50 with Neu5Acα2–6GalβpNP as sialidase substrate
# Chain of Salmonella typhimurium sialidase (P29768 whole entry): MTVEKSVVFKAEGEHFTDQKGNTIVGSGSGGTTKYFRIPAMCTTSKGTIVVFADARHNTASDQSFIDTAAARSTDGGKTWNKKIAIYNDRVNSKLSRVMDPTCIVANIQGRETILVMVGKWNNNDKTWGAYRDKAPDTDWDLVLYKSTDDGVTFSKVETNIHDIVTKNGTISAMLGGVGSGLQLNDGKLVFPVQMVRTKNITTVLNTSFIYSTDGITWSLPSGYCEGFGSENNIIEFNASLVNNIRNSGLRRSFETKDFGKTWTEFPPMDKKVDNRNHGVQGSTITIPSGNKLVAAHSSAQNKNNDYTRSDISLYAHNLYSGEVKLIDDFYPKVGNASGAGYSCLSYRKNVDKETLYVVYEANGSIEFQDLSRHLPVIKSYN
# Chain of Vibrio cholerae sialidase (type III) (P0C6E9 25-781 limits assumed): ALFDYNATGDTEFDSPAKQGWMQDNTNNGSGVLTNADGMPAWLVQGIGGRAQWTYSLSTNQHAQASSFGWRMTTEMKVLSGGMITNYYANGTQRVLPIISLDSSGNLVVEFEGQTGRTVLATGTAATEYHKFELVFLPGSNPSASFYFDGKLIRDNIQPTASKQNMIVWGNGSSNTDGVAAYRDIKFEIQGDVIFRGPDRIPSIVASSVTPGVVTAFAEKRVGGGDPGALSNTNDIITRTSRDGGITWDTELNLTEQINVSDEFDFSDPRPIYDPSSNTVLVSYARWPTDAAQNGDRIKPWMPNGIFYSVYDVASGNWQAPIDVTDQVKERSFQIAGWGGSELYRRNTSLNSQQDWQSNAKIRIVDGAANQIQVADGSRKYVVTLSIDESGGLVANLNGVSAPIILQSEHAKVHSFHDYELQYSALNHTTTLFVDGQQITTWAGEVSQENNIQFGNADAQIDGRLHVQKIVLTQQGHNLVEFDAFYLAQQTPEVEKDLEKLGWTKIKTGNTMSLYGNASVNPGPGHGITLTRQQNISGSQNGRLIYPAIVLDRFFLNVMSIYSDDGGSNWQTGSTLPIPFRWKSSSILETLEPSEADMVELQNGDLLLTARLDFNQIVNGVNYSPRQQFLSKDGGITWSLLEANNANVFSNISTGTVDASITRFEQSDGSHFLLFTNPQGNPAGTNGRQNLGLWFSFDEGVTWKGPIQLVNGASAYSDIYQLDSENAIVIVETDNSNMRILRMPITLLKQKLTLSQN
SMILES,"IC50 [1, 6] [µM]","IC50 [1, 7] [µM]",IC50 [2] [µM],IC50 [3] [µM],inhibitory effect against β-galactosidase [4],fold less efficient than Neu5Ac2en (1) against V. cholerae sialidase [1] [fold],fold less efficient than Neu5Ac2en (1) against human NEU2 [5] [fold],IC50 [5] [µM],selectivity for V. cholerae sialidase among the five sialidases tested [1]
"CCCNC[C@@H](O)[C@@H](O)[C@@H]1OC(C(=O)O)=C[C@H](O)[C@H]1NC(C)=O [Neu5Ac9NPro2en (7), 5-Acetamido-9-aminopropyl-2,6-anhydro-3,5,9-trideoxy-D-glycero-D-galacto-non-2-enonic acid]",> 1000,> 1000,2300,5400,no inhibitory effect,,,,
"CC(=O)N[C@H]1[C@H]([C@H](O)[C@H](O)CN=[N+]=[N-])OC(C(=O)O)=C[C@@H]1O [Neu5Ac9N32en (3), 5-Acetamido-2,6-anhydro-9-azido-3,5,9-trideoxy-D-glycero-D-galacto-non-2-enonic acid]",,8.7 ± 1,210,3300,no inhibitory effect,2.3,2.4,43 ± 2,
"[N-]=[N+]=NCC(=O)N[C@H]1[C@H]([C@H](O)[C@H](O)CN=[N+]=[N-])OC(C(=O)O)=C[C@@H]1O [Neu5AcN39N32en (5), 2,6-Anhydro-9-azido-5-(2-azidoacetamido)-3,5,9-trideoxy-D-glycero-D-galacto-non-2-enonic acid]",140,110,16000,> 1000,no inhibitory effect,,,,
"CC(=O)N[C@H]1[C@H]([C@H](O)[C@H](O)CO)OC(C(=O)O)=C[C@@H]1O [Neu5Ac2en (1), 2-deoxy-2,3-dehydro-N-acetylneuraminic acid, reference compound]",,,,,no inhibitory effect,,,,
"[N-]=[N+]=NC[C@@H](O)[C@@H](O)[C@@H]1OC(C(=O)O)=C[C@H](O)[C@H]1NC(=O)CO [Neu5Gc9N32en (4), 2,6-Anhydro-9-azido-3,5,9-trideoxy-5-(2-hydroxyacetamido)-D-glycero-D-galacto-non-2-enonic acid]",18 ± 3,13 ± 2,> 10000,> 10000,no inhibitory effect,,,150,selective inhibitor
"COC[C@@H](O)[C@@H](O)[C@@H]1OC(C(=O)O)=C[C@H](O)[C@H]1NC(C)=O [Neu5Ac9Me2en (6), 5-Acetamido-2,6-anhydro-3,5-dideoxy-9-O-methyl-D-glycero-D-galacto-non-2-enonic acid]",130,120,130,3000,no inhibitory effect,,,1100,
